Literature values as cited in patent US20040110696A1, “GENE THERAPY SYSTEM AND METHOD USING ALPHA-MSH AND ITS DERIVATIVES” (priority 2003, published 2004).
Where no end group is shown, it is not given here.

Experiments:
[1] = tested on: fever; conditions: for antipyretic activity: rabbit, in vivo; for antipyretic potency: relative to the α-MSH(11-13) sequence
[2] = tested on: inflammation; conditions: for anti-inflammatory activity: in vitro and in vivo

lysine-proline-valine [KPV]
antipyretic activity [1]: parallel those of the parent molecule
anti-inflammatory activity [2]: parallel those of the parent molecule

MEHFRWG [α-MSH sequence (4-10)]
antipyretic activity [1]: little
anti-inflammatory activity [2]: little

9-13 sequence: α-MSH fragment, residues 9-13 (WGKPV; ends and bridges not checked; UniProt P01189 146-150, looked up, fragment)
antipyretic potency [1]: almost devoid of activity

10-13 sequence: α-MSH(11-13) with glycine added to form the 10-13 sequence (GKPV; ends and bridges not checked; UniProt P01189 147-150, looked up, fragment)
antipyretic potency [1]: slightly decreased potency

Ac-[D-K11]-α-MSH 11-13-NH2
general potency of α-MSH (11-13) stereochemical analogs ([2]; relative to L-form tripeptide, kind of activity not given, cited Hiltz 1991 anti-inflammatory activity): same general potency as the L-form

8-13 sequence: α-MSH fragment, residues 8-13 (RWGKPV; ends and bridges not checked; UniProt P01189 145-150, looked up, fragment)
antipyretic potency [1]: greater than that of the 11-13 sequence

[Nle^4,D-Phe^7]-α-MSH
potency in reducing fever ([1]; relative to the parent peptide α-MSH): approximately ten times more potent
